Measurements as given in PubChem BioAssay (NCI).
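Step 1: Grow cells in 96-well plates. Step 2: Expose to compound for 48 hours at 5 concentrations. Step 3: Interpolate endpoints linearly; if unreached, use highest concentration. TGI: total growth inhibition.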

What was measured:
Assay in all cases: NCI tumour cell line growth inhibition, 48 h
SF-539 CNS = system: SF-539 CNS
HOP-92 NSCLC = system: HOP-92 NSCLC
SNB-75 CNS = system: SNB-75 CNS
RXF-631 renal = system: RXF-631 renal
HOP-18 NSCLC = system: HOP-18 NSCLC
HCT-15 colon = system: HCT-15 colon
LOX IMVI melanoma = system: LOX IMVI melanoma
UO-31 renal = system: UO-31 renal
LXFL 529 NSCLC = system: LXFL 529 NSCLC
M19-MEL melanoma = system: M19-MEL melanoma
IGROV1 ovarian = system: IGROV1 ovarian
OVCAR-5 ovarian = system: OVCAR-5 ovarian
DMS 273 small cell lung = system: DMS 273 small cell lung
RPMI-8226 leukemia = system: RPMI-8226 leukemia
MOLT-4 leukemia = system: MOLT-4 leukemia
SNB-19 CNS = system: SNB-19 CNS
SW-620 colon = system: SW-620 colon
OVCAR-4 ovarian = system: OVCAR-4 ovarian
RXF 393 renal = system: RXF 393 renal
NCI-H522 lung = system: NCI-H522 lung
NCI-H23 lung = system: NCI-H23 lung
NCI-H226 lung = system: NCI-H226 lung
KM20L2 colon = system: KM20L2 colon
HCT-116 colon = system: HCT-116 colon
CCRF-CEM leukemia = system: CCRF-CEM leukemia
DMS 114 small cell lung = system: DMS 114 small cell lung
SK-MEL-28 melanoma = system: SK-MEL-28 melanoma
K-562 leukemia = system: K-562 leukemia
COLO 205 colon = system: COLO 205 colon
SK-OV-3 ovarian = system: SK-OV-3 ovarian
SK-MEL-5 melanoma = system: SK-MEL-5 melanoma
SF-295 CNS = system: SF-295 CNS
OVCAR-8 ovarian = system: OVCAR-8 ovarian
SNB-78 CNS = system: SNB-78 CNS
SK-MEL-2 melanoma = system: SK-MEL-2 melanoma
HT29 colon = system: HT29 colon
SN12C renal = system: SN12C renal
TK-10 renal = system: TK-10 renal
MALME-3M melanoma = system: MALME-3M melanoma
UACC-257 melanoma = system: UACC-257 melanoma
XF 498 CNS = system: XF 498 CNS
NCI-H460 lung = system: NCI-H460 lung
SF-268 CNS = system: SF-268 CNS
786-0 renal = system: 786-0 renal
UACC-62 melanoma = system: UACC-62 melanoma
EKVX NSCLC = system: EKVX NSCLC
OVCAR-3 ovarian = system: OVCAR-3 ovarian
U251 CNS = system: U251 CNS
A549 NSCLC = system: A549 NSCLC
M14 melanoma = system: M14 melanoma
A498 renal = system: A498 renal
HOP-62 NSCLC = system: HOP-62 NSCLC
ACHN renal = system: ACHN renal
DLD-1 colon = system: DLD-1 colon
CAKI-1 renal = system: CAKI-1 renal
KM12 colon = system: KM12 colon
HCC-2998 colon = system: HCC-2998 colon
HL-60(TB) leukemia = system: HL-60(TB) leukemia
SR leukemia = system: SR leukemia

Cc1cccc(C(=O)c2cccc3ccccc23)c1C(=O)O
TGI (SF-539 CNS): > 100 µM | TGI (HOP-92 NSCLC): > 100 µM | TGI (SNB-75 CNS): > 100 µM | TGI (RXF-631 renal): > 100 µM | TGI (HOP-18 NSCLC): > 100 µM | TGI (HCT-15 colon): > 100 µM | TGI (LOX IMVI melanoma): > 100 µM | TGI (UO-31 renal): > 100 µM | TGI (LXFL 529 NSCLC): > 100 µM | TGI (M19-MEL melanoma): > 100 µM | TGI (IGROV1 ovarian): > 100 µM | TGI (OVCAR-5 ovarian): > 100 µM | TGI (DMS 273 small cell lung): > 100 µM | TGI (RPMI-8226 leukemia): > 100 µM | TGI (MOLT-4 leukemia): > 100 µM | TGI (SNB-19 CNS): > 100 µM | TGI (SW-620 colon): > 100 µM | TGI (OVCAR-4 ovarian): > 100 µM | TGI (RXF 393 renal): > 100 µM | TGI (NCI-H522 lung): > 100 µM | TGI (NCI-H23 lung): > 100 µM | TGI (NCI-H226 lung): > 100 µM | TGI (KM20L2 colon): > 100 µM | TGI (HCT-116 colon): > 100 µM | TGI (CCRF-CEM leukemia): > 100 µM | TGI (DMS 114 small cell lung): 13.8 µM | TGI (SK-MEL-28 melanoma): > 100 µM | TGI (K-562 leukemia): > 100 µM | TGI (COLO 205 colon): 80 µM | TGI (SK-OV-3 ovarian): > 100 µM | TGI (SK-MEL-5 melanoma): > 100 µM | TGI (SF-295 CNS): > 100 µM | TGI (OVCAR-8 ovarian): > 100 µM | TGI (SNB-78 CNS): > 100 µM | TGI (SK-MEL-2 melanoma): > 100 µM | TGI (HT29 colon): > 100 µM | TGI (SN12C renal): > 100 µM | TGI (TK-10 renal): > 100 µM | TGI (MALME-3M melanoma): > 100 µM | TGI (UACC-257 melanoma): > 100 µM | TGI (XF 498 CNS): > 100 µM | TGI (NCI-H460 lung): > 100 µM | TGI (SF-268 CNS): > 100 µM | TGI (786-0 renal): > 100 µM | TGI (UACC-62 melanoma): > 100 µM | TGI (EKVX NSCLC): > 100 µM | TGI (OVCAR-3 ovarian): > 100 µM | TGI (U251 CNS): > 100 µM | TGI (A549 NSCLC): > 100 µM | TGI (M14 melanoma): > 100 µM | TGI (A498 renal): > 100 µM | TGI (HOP-62 NSCLC): > 100 µM | TGI (ACHN renal): > 100 µM | TGI (DLD-1 colon): > 100 µM

COc1c2c(c3c(c1C1OC(C)[C@@H](C)O1)CC(C)(C)O3)C(=O)c1ccccc1C2=O (some centres undefined)
TGI (SF-539 CNS): > 100 µM | TGI (HOP-92 NSCLC): 89.7 µM | TGI (SNB-75 CNS): > 100 µM | TGI (CAKI-1 renal): > 100 µM | TGI (RXF-631 renal): 33.4 µM | TGI (HCT-15 colon): > 100 µM | TGI (LOX IMVI melanoma): 28.6 µM | TGI (UO-31 renal): > 100 µM | TGI (LXFL 529 NSCLC): > 100 µM | TGI (M19-MEL melanoma): > 100 µM | TGI (IGROV1 ovarian): > 100 µM | TGI (OVCAR-5 ovarian): > 100 µM | TGI (DMS 273 small cell lung): 69.7 µM | TGI (RPMI-8226 leukemia): 52.2 µM | TGI (SNB-19 CNS): > 100 µM | TGI (SW-620 colon): 63.6 µM | TGI (OVCAR-4 ovarian): > 100 µM | TGI (RXF 393 renal): > 100 µM | TGI (NCI-H23 lung): > 100 µM | TGI (NCI-H226 lung): > 100 µM | TGI (KM20L2 colon): > 100 µM | TGI (HCT-116 colon): > 100 µM | TGI (CCRF-CEM leukemia): 53.2 µM | TGI (DMS 114 small cell lung): > 100 µM | TGI (SK-MEL-28 melanoma): > 100 µM | TGI (K-562 leukemia): > 100 µM | TGI (COLO 205 colon): > 100 µM | TGI (KM12 colon): > 100 µM | TGI (SK-OV-3 ovarian): > 100 µM | TGI (SK-MEL-5 melanoma): > 100 µM | TGI (SF-295 CNS): > 100 µM | TGI (HCC-2998 colon): > 100 µM | TGI (OVCAR-8 ovarian): > 100 µM | TGI (SNB-78 CNS): > 100 µM | TGI (SK-MEL-2 melanoma): > 100 µM | TGI (HT29 colon): > 100 µM | TGI (SN12C renal): > 100 µM | TGI (HL-60(TB) leukemia): 31.6 µM | TGI (SR leukemia): 68.2 µM | TGI (TK-10 renal): > 100 µM | TGI (MALME-3M melanoma): > 100 µM | TGI (UACC-257 melanoma): > 100 µM | TGI (XF 498 CNS): > 100 µM | TGI (NCI-H460 lung): > 100 µM | TGI (SF-268 CNS): > 100 µM | TGI (786-0 renal): > 100 µM | TGI (UACC-62 melanoma): > 100 µM | TGI (EKVX NSCLC): > 100 µM | TGI (OVCAR-3 ovarian): > 100 µM | TGI (U251 CNS): > 100 µM | TGI (A549 NSCLC): > 100 µM | TGI (M14 melanoma): > 100 µM | TGI (HOP-62 NSCLC): > 100 µM | TGI (ACHN renal): > 100 µM | TGI (DLD-1 colon): > 100 µM

CN(C)c1ccc2c(c1)C(=O)N(OS(=O)(=O)c1ccc([N+](=O)[O-])cc1)C2=O
TGI (SF-539 CNS): 33.8 µM | TGI (HOP-92 NSCLC): > 10 µM | TGI (SNB-75 CNS): > 100 µM | TGI (CAKI-1 renal): 54.2 µM | TGI (RXF-631 renal): 47.1 µM | TGI (HOP-18 NSCLC): > 100 µM | TGI (HCT-15 colon): > 100 µM | TGI (UO-31 renal): 60.9 µM | TGI (LXFL 529 NSCLC): 37 µM | TGI (M19-MEL melanoma): 52.7 µM | TGI (IGROV1 ovarian): 43 µM | TGI (OVCAR-5 ovarian): 57.6 µM | TGI (DMS 273 small cell lung): 43.9 µM | TGI (SNB-19 CNS): > 100 µM | TGI (SW-620 colon): 46.8 µM | TGI (OVCAR-4 ovarian): 31.5 µM | TGI (RXF 393 renal): 28.1 µM | TGI (NCI-H522 lung): 30.5 µM | TGI (NCI-H23 lung): 64 µM | TGI (NCI-H226 lung): > 100 µM | TGI (HCT-116 colon): > 10 µM | TGI (CCRF-CEM leukemia): 63.1 µM | TGI (DMS 114 small cell lung): > 10 µM | TGI (SK-MEL-28 melanoma): 63.9 µM | TGI (K-562 leukemia): > 100 µM | TGI (COLO 205 colon): 54.6 µM | TGI (KM12 colon): 75.5 µM | TGI (SK-OV-3 ovarian): > 100 µM | TGI (SK-MEL-5 melanoma): > 100 µM | TGI (SF-295 CNS): 62.7 µM | TGI (HCC-2998 colon): 60.3 µM | TGI (OVCAR-8 ovarian): 61.2 µM | TGI (SNB-78 CNS): 73.8 µM | TGI (SK-MEL-2 melanoma): 87 µM | TGI (HT29 colon): 47.6 µM | TGI (SN12C renal): 56.4 µM | TGI (HL-60(TB) leukemia): 76 µM | TGI (SR leukemia): 63.8 µM | TGI (TK-10 renal): > 100 µM | TGI (MALME-3M melanoma): > 100 µM | TGI (UACC-257 melanoma): 58.8 µM | TGI (XF 498 CNS): 35.1 µM | TGI (NCI-H460 lung): > 100 µM | TGI (SF-268 CNS): 80.8 µM | TGI (786-0 renal): 47.9 µM | TGI (UACC-62 melanoma): 31.8 µM | TGI (EKVX NSCLC): > 100 µM | TGI (OVCAR-3 ovarian): > 10 µM | TGI (U251 CNS): 35.1 µM | TGI (A549 NSCLC): > 100 µM | TGI (M14 melanoma): 38.8 µM | TGI (A498 renal): > 100 µM | TGI (HOP-62 NSCLC): > 100 µM | TGI (ACHN renal): 59.9 µM | TGI (DLD-1 colon): 86.8 µM
